Reference: patent US6486199B1, “Spiro and dispiro 1,2,4-trioxolane antimalarials” (Medicines for Malaria Venture MMV International Centre …, priority 2001, dated 2002)

Legend:
[1] = differential scanning calorimetry (DSC), thermal stability; format: physicochemical; settings: thermal decomposition
[2] = test system: ANKA strain of P. Berghei; test: single dose STI in vivo screen in infected Moro SPF mice; settings: for antimalarial activity, overall assessment: overall judgement of in vitro and in vivo data of Table 2; for Activity (%) po / Activity (%) sc: percent reduction in parasitemia day 3 post-infection; for Activity (%) po / Survival (days) po: single 10 mg/kg po; for Activity (%) sc / Survival (days) sc: single 10 mg/kg sc
Method: In the single dose STI in vivo screen, Moro SPF mice infected with the ANKA strain of P. Berghei (groups of three mice) were treated on day one post-infection with trioxolanes dissolved or suspended in 3% ethanol and 7% Tween 80. […] Antimalarial activity was measured by percent redution in parasitemia on day three post-infection and survival times compared to an untreated control group. Survival to day 30 post-infection is considered to be a cure.

Row | SMILES | Tm dec. (° C.) [1] [°C] | also measured
1 | O=C(O)CCC(=O)N1CCC2(CC1)OOC1(O2)C2CC3CC(C2)CC1C3 (stereo not shown) [OZ58, Adamantane-2-spiro-3′-8′-(3′-carboxypropionyl)-1′,2′,4′-trioxa-8′-azaspiro[4.5]decane] | 147.0 | 
2 | ON=C1CCC2(CC1)OOC1(O2)C2CC3CC(C2)CC1C3 (stereo not shown) [OZ16, Adamantane-2-spiro-3′-8′-hydroxyimino-1′,2′,4′-trioxaspiro[4.5]decane] | 153.6 | 
3 | CC1(C)CC(C)(C)CC2(C1)OOC1(O2)C2CC3CC(C2)CC1C3 (stereo not shown) [OZ26, Adamantane-2-spiro-3′-7′,9′-tetramethyl-1′,2′,4′-trioxaspiro[4.5]decane] | 173.4 | 
4 | CC(C)(C)ON=C1CCC2(CC1)OOC1(O2)C2CC3CC(C2)CC1C3 (stereo not shown) [OZ28, Adamantane-2-spiro-3′-8′-t-butyloxyimino-1′,2′,4′-trioxaspiro[4.5]decane] | 162.4 | 
5 | OC1(c2ccc(F)cc2)CCC2(CC1)OOC1(O2)C2CC3CC(C2)CC1C3 (stereo not shown) [OZ76, Adamantane-2-spiro-3′-8′-(4′-fluorophenyl)-8′-hydroxy-1′,2′,4′-trioxaspiro[4.5]decane] | 149.6 | 
6 | c1ccc(C2CCC3(CC2)OOC2(O3)C3CCCC2CCC3)cc1 (stereo not shown) [OZ67, Bicyclo[3.3.1]nonane-9-spiro-3′-8′-phenyl-1′,2′,4′-trioxaspiro[4.5]decane] | 162.3 | antimalarial activity, overall assessment [2]: completely inactive; Activity (%) po [2]: 0/0%; Activity (%) sc [2]: 0/0%; Survival (days) po [2]: 5.0/5.0 days; Survival (days) sc [2]: 5.0/5.0 days
7 | FC(F)(F)c1cccc(C2(c3cccc(C(F)(F)F)c3)OOC3(O2)C2CC4CC(C2)CC3C4)c1 (stereo not shown) [OZ46, Adamantane-2-spiro-3′-5′,5′-bis[3′-(trifluoromethyl)phenyl]-1′,2′,4′-trioxolane] | 161.3 | 
8 | Fc1ccc(C2(c3ccc(F)cc3)OOC3(O2)C2CC4CC(C2)CC3C4)cc1 (stereo not shown) [OZ44, Adamantane-2-spiro-3′-5′, 5′-bis(4′-fluorophenyl)-1′,2′,4′-trioxolane] | 157.5 | 
9 | O=S(=O)(c1ccc(Cl)cc1)N1CCC2(CC1)OOC1(O2)C2CC3CC(C2)CC1C3 (stereo not shown) [OZ57, Adamantane-2-spiro-3′-8′-(4′-chlorobenzenesulfonyl)-1′,2′,4′-trioxa-8′-azaspiro[4.5]decane] | 158.0 | 
10 | O=C(O)CON=C1CCC2(CC1)OOC1(O2)C2CC3CC(C2)CC1C3 (stereo not shown) [OZ54, Adamantane-2-spiro-3′-8′-carboxymethoxyimino-1′,2′,4′-trioxaspiro[4.5]decane] | 149.3 | Survival (days) po [2]: 7.0/7.0 days; Survival (days) sc [2]: 7.0/7.0 days
11 | Cc1ccc(S(=O)(=O)N2CCC3(CC2)OOC2(O3)C3CC4CC(C3)CC2C4)cc1 (stereo not shown) [OZ51, Adamantane-2-spiro-3′-8′-(p-toluenesulfonyl)-1′,2′,4′-trioxa-8′-azaspiro[4.5]decane] | 152.3 | 
12 | CS(=O)(=O)N1CCC2(CC1)OOC1(O2)C2CC3CC(C2)CC1C3 (stereo not shown) [OZ56, Adamantane-2-spiro-3′-8′-methanesulfonyl-1′,2′,4′-trioxa-8′-azaspiro[4.5]decane] | 158.0 | 
13 | CCN(CC)C(=O)C1CCC2(CC1)OOC1(O2)C2CC3CC(C2)CC1C3 (stereo not shown) [OZ73, Adamantane-2-spiro-3′-8′-diethylaminocarbonyl-1′,2′,4′-trioxaspiro[4.5] decane] | 160.2 | antimalarial activity, overall assessment [2]: only weakly active
14 | CC(C)(C)COC(=O)C1CCC2(CC1)OOC1(O2)C2CC3CC(C2)CC1C3 (stereo not shown) [OZ64, Adamantane-2-spiro-3′-8′-neopentyloxycarbonyl-1′,2′,4′-trioxaspiro[4.5]decane] | 163.8 | 
15 | O=C(OC1CCC2(CC1)OOC1(O2)C2CC3CC(C2)CC1C3)c1ccccc1 (stereo not shown) [OZ74, Adamantane-2-spiro-3′-8′-benzoyloxy-1′,2′,4′-trioxaspiro[4.5]decane] | 161.2 | 
16 | CC(C)C1CCC2(CC1)OOC1(O2)C2CC3CC(C2)CC1C3 (stereo not shown) [OZ40, Adamantane-2-spiro-3′-8′-isopropyl-1′,2′,4′-trioxaspiro[4.5]decane] | 164.2 | 
17 | CC1(C)CCC2(CC1)OOC1(O2)C2CC3CC(C2)CC1C3 (stereo not shown) [OZ33, Adamantane-2-spiro-3′-8′,8′-dimethyl-1′,2′,4′-trioxaspiro[4.5]decane] | 163.1 | 
18 | CC1(C)COC2(CCC3(CC2)OOC2(O3)C3CCCC2CCC3)OC1 (stereo not shown) [OZ68, Bicyclo[3.3.1]nonane-9-spiro-3′-11′,11′-dimethyl-1′,2′,4′,9′,13′-pentaoxadispiro[4.2.5.2]pentadecane] | 163.1 | antimalarial activity, overall assessment [2]: similarly inactive

Row | SMILES | Tm dec. (° C.) [1] [°C] | also measured
19 | N#CC1(c2ccc(Cl)c(Cl)c2)CCC2(CC1)OOC1(O2)C2CC3CC(C2)CC1C3 (stereo not shown) [OZ75, Adamantane-2-spiro-3′-8′-cyano-8′-(3′,4′-dichlorophenyl)-1′,2′,4′-trioxaspiro[4.5]decane] | 159.1 | 
20 | O=C1CC2CC(C1)CC1(C2)OOC2(O1)C1CC3CC(C1)CC2C3 (stereo not shown) [OZ13, Adamantane-2-spiro-3′-1′,2′,4′-trioxolane-5′-spiro-3″-7″-oxobicyclo[3.3.1]nonane] | 170.1 | 
21 | CC(=O)OC1(c2ccc(F)cc2)CCC2(CC1)OOC1(O2)C2CC3CC(C2)CC1C3 (stereo not shown) [OZ69, Adamantane-2-spiro-3′-8′-acetoxy-8′-(4′-fluorophenyl)-1′,2′,4′-trioxaspiro[4.5]decane] | 164.1 | Survival (days) po [2]: 6.3/6.3 days; Survival (days) sc [2]: 6.3/6.3 days
22 | CCOC(=O)CCC(=O)N1CCC2(CC1)OOC1(O2)C2CC3CC(C2)CC1C3 (stereo not shown) [OZ53, Adamantane-2-spiro-3′-8′-[3′-(ethoxycarbonyl)propionyl]-1′,2′,4′-trioxa-8′-azaspiro[4.5]decane] | 152.7 | 
23 | O=S(=O)(c1ccccc1)N1CCC2(CC1)OOC1(O2)C2CC3CC(C2)CC1C3 (stereo not shown) [OZ60, Adamantane-2-spiro-3′-8′-benzenesulfonyl-1′, 2′,4′-trioxa-8′-azaspiro[4.5]decane] | 152.6 | 
24 | COC1(c2ccc(F)cc2)CCC2(CC1)OOC1(O2)C2CC3CC(C2)CC1C3 (stereo not shown) [OZ77, Adamantane-2-spiro-3′-8′-(4′-fluorophenyl)-8′-methoxy-1′,2′,4′-trioxaspiro[4.5]decane] | 161.3 | antimalarial activity, overall assessment [2]: excellent activity
25 | c1ccc(CC2(Cc3ccccc3)OOC3(O2)C2CC4CC(C2)CC3C4)cc1 (stereo not shown) [OZ52, Adamantane-2-spiro-3′-5′,5′-dibenzyl-1′,2′,4′-trioxolane] | 154.9 | 
26 | c1ccc(C2(c3ccccc3)CCC3(CC2)OOC2(O3)C3CC4CC(C3)CC2C4)cc1 (stereo not shown) [OZ34, Adamantane-2-spiro-3′-8′,8′-diphenyl-1′,2′,4′-trioxaspiro[4.5]decane] | 181.4 | Activity (%) po [2]: 0/0%; Activity (%) sc [2]: 0/0%
27 | COc1ccc(S(=O)(=O)N2CCC3(CC2)OOC2(O3)C3CC4CC(C3)CC2C4)cc1 (stereo not shown) [OZ59, Adamantane-2-spiro-3′-8′-(4′-methoxybenzenesulfonyl)-1′,2′,4′-trioxa-8′-azaspiro[4.5]decane] | 152.2 | 
28 | CON=C1CC2CC3(CC2C1)OOC1(O3)C2CC3CC(C2)CC1C3 (stereo not drawn) [OZ37, Adamantane-2-spiro-3′-1′,2′,4′-trioxolane-5′-spiro-3″-7″-methoxyimino-cis-bicyclo[3.3.0]octane] | 151.2 | 
29 | CC(C)(C)OC(=O)N1CCC2(CC1)OOC1(O2)C2CC3CC(C2)CC1C3 (stereo not shown) [OZ35, Adamantane-2-spiro-3′-8′-t-butoxycarbonyl-1′,2′,4′-trioxa-8′-azaspiro[4.5]decane] | 159.4 | 
30 | c1ccc(C2(c3ccccc3)OOC3(O2)C2CC4CC(C2)CC3C4)cc1 (stereo not shown) [OZ42, Adamantane-2-spiro-3′-5′,5′-diphenyl-1′,2′,4′-trioxolane] | 159.1 | 
31 | O=C1c2ccccc2C(=O)N1N=C1CCC2(CC1)OOC1(O2)C2CC3CC(C2)CC1C3 (stereo not shown) [OZ38, Adamantane-2-spiro-3′-8′-(N-phthalimido)imino-1′,2′,4′-trioxaspiro[4.5]decane] | 165.1 | 
32 | Clc1ccc(C2CCC3(CC2)OOC2(O3)C3CC4CC(C3)CC2C4)cc1 (stereo not shown) [OZ47, Adamantane-2-spiro-3′-8′-(4′-chlorophenyl)-1′,2′,4′-trioxaspiro[4.5]decane] | 159.3 | 
33 | Fc1c(F)c(F)c(C2(c3c(F)c(F)c(F)c(F)c3F)OOC3(O2)C2CC4CC(C2)CC3C4)c(F)c1F (stereo not shown) [OZ45, Adamantane-2-spiro-3′-5′,5′-bis(2′,3′,4′,5′,6′-pentafluorophenyl)-5′,2′,4′-trioxolane] | 133.7 | 
34 | N#CC1(c2ccccc2)CCC2(CC1)OOC1(O2)C2CC3CC(C2)CC1C3 (stereo not shown) [OZ63, Adamantane-2-spiro-3′-8′-cyano-8′-phenyl-1′,2′,4′-trioxaspiro[4.5]decane] | 158.3 | 
35 | FC(F)(F)c1ccc(C2CCC3(CC2)OOC2(O3)C3CC4CC(C3)CC2C4)cc1 (stereo not shown) [OZ48, Adamantane-2-spiro-3′-8′-[4′-(trifluoromethyl)phenyl]-1′,2′,4′-trioxaspiro[4.5]decane] | 156.1 | 
